BindingDB's records for doi:10.1016/j.bmcl.2009.10.040 (Methylgene, 2009)

What was measured:
[1] = Inhibition of c-Met in human DU145 cells assessed as cell scattering
[2] = Inhibition of c-Met in human A549 cells by wound healing assay

## COc1cc2nccc(Oc3ccc(NC(=O)N4CCN(c5ccccc5)C4=O)cc3F)c2cc1OC
[1]
  IC50: 80 nM
[2]
  IC50: 80 nM
